16 compounds from patent US4795814A, “Process for preparing novel dihydropyridine derivatives” (Otsuka Pharmaceutical Co., Ltd., priority 1984, dated 1989) can be followed below.

The target in assay [1] is T1, Calmodulin-dependent cyclic-AMP phosphodiesterase (EC 3.1.4.17) (Bos taurus, UniProt P14100).
T1 construct: An enzyme substance isolated from the heart of bovine and purified partially; from tissue; host or cells: bovine heart
Briefly: Pharmacological Test-2 (2): Cyclic-AMP phosphodiesterase inhibitory activity (EGTA in place of CaCl2). The class given is biochemical, bovine. The text has this:
(§1) (2) Calmodulin-dependent cyclic-AMP phosphodiesterase (EC 3.1.4.17): An enzyme substance isolated from the heart of bovine and purified partially by a method of modified version of the disclosure in H. C. Ho, T. S. Teo, et al.: "Biochim. Biophys. Acta", 429, 461 (1976).
(§2) (3) 5'-Nucleotidase (EC 3.1.3.5): Grade IV substance (isolated from Crotalus adamanteus venom) manufactured by Sigma & Co.
(§3) (4) Others: Remainder of the reagents used in the test were those of reagent grade chemicals manufactured by Wako Pure-Chemical Industries, Ltd.
(§4) Calmodulin inhibitory activity of each of the test compounds was measured by a method of modified version of the disclosure in T. S. Teo and T. H. Wang: "J. Bio. Chem.", 248, 588 (1973).
(§5) (3) 5'-Nucleotidase: One unit thereof hydrolyzes 1.0 micromole of inorganic phosphorus from adnosine 5'-monophosphate per minute at pH 9.0 at 37° C.
(§6) 40 mM of Imidazol, 20 mM of MgCl2, 20 mM of CaCl2, 0.008 […] of cyclic-AMP phosphodiesterase, 1.0 unit of calmodulin, 0.2 unit of 5'-nucleotidase and 1.0 ml of 10 mM-tris(hydroxymethyl)aminomethane/HCl buffer solution (pH 7.0) containing 0.5 mM of cyclic-AMP were mixed together, and reacted at 30° C. for 30 minutes. Each of the test compounds were dissolved in methanol or N,N-dimethylformamide as the solvent, provided that the quanitty of the solvent was not exceed 2% of the total amount of the mixture. After the reaction was completed, the reaction mixture was ice-cooled, and 0.5 ml each of aqueous solutions of 16.5%-trichloroacetic acid, 1%-thiourea, 3%-ammonium ferrous sulfate were respectively added to the reaction mixture. Further, 0.15 ml of 4.4%-ammonium molibdate solution was added to the mixture and the whole of the mixture was stirred, and was centrifuged at 3,000 r.p.m. for 10 minutes. Then, the centrifuged mixture was allowed to stand at a room temperature for 20 minutes. The OD660 nm (optical density at 660 nm) was measured.
(2) Cyclic-AMP phosphodiesterase inhibitory activity:
The reaction was conducted by a method similar to that described in (1) as mentioned above, except that 1 mM of EGTA [ethylene glycol-bis(β-aminoethyl ether)-N,N-tetraacetic acid] was used in place of 20 mM of CaCl2. The reaction was conducted for 3 hours.

Assay [2] deals with T2, Calmodulin-cyclic-AMP phosphodiesterase (Bos taurus, UniProt P14100+P62157).
T2 construct: An enzyme substance isolated from the heart of bovine and purified partially; which was isolated from the brain of bovine, and purified so as to be considered as a single substance; from tissue; host or cells: bovine heart (phosphodiesterase); the calmodulin is a bovine brain product of Amano & Co
The assay is described as follows: Pharmacological Test-2 (1): Calmodulin-cyclic-AMP phosphodiesterase inhibitory activity (with calmodulin, CaCl2). The class given is biochemical, bovine. The conditions noted are these: in the presence of calmodulin, CaCl2, pH 7.0, 30° C., 30 minutes.
From the text: (1) Calmodulin: A calmodulin product manufactured by Amano & Co., which was isolated from the brain of bovine, and purified so as to be considered as a single substance with respect to SDS-page (polyacrylamide gel electrophoresis) method.
as §1, §2, §3, §4
(2) Calmodulin: One unit thereof stimulates 0.015 activated unit of cyclic-AMP phosphodiesterase to 50% of the maximum activity of the enzyme.
as §5
(3) Reactions in the tests (1) Calmodulin-cyclic-AMP phosphodiesterase inhibitory activity:
as §6

Assay [3] has as its system SHR-rats (spontaneously hypertensive rats). Briefly: Pharmacological Test-1: vasodilative effect, systolic blood pressure of SHR-rats by tail cuff method after oral administration. In kind it is in vivo. The conditions noted are these: 30 mg/kg p.o.
Procedure: Vasodilative effects of the dihydropyridine derivatives of the present invention were determined by measuring the systolic blood pressures of test animals before and after the administration of test compound.
Systolic blood pressures and heart beat of SHR-rats (spontaneously hypertensive rats) were determined by a "tail cuff method". Thus the test animal was placed in a thermostat chamber (Type: FR-12RS, manufactured by Isuze & Co.) and was warmed at 40° C. for 15 minutes so as to vasodilate the tail arteria, the systolic blood pressures were measured by an electro sphygmomanometer (Type: PE-300, manufactured by Narco-Biosystems, Inc.) and recorded by an ink-writing recorder (Type: RECTIHORIZ 8s, manufactured by San-Ei Instrument & Co.). The experiments were conducted under non-anesthetized and semi-confinement conditions. The test compound was orally administered forcedly by using a sonde for oral administration. The test compound was suspended in 0.15%-gum arabic powder aqueous solution so as to make the quantity of the test compound to 2.5 ml/kg. The test animal was not fasted, and the systolic blood pressures (mm-Hg) were measured before the administration (hereinafter referred to as "PRE") and after the administration (8, 24, 30, 48, 54 and 72 hours after the administration) of the test compound. The data of systolic blood pressure measured before the administration are shown in absolute value of mmHg, and the data measured after the administration are shown in the differences from the absolute values.
[4] abbreviates: 1 mM EGTA in place of CaCl2, 3 hours, read-out: Cyclic-AMP phosphodiesterase IC50 (converted).

Read-outs that look alike come from different tables or passages of the source.

T1 sequence (P14100 1-514 isoform P14100-2): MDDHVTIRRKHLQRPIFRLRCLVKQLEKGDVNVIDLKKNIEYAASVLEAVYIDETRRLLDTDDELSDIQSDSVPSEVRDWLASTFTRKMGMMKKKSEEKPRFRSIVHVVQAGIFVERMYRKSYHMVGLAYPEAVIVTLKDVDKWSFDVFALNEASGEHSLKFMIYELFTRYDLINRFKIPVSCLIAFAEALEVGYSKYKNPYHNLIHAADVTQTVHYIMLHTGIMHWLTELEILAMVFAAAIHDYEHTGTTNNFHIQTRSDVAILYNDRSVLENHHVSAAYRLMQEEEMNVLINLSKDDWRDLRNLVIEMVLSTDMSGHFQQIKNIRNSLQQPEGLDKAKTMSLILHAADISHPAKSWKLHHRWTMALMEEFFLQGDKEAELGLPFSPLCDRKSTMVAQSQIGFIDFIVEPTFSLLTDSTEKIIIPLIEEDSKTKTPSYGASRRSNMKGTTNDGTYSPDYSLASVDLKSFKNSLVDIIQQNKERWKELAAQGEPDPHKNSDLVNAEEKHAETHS

Consider `COC(=O)C1=C(C)NC(C)=C(C(=O)OC/C=C/c2ccc(O)c(Cl)c2)C1c1cccc([N+](=O)[O-])c1` (stereo not drawn) [Test Compound 9, Methyl 3-(3-chloro-4-hydroxyphenyl)-2(E)-propenyl 1,4-dihydro-2,6-dimetyyl-4-(3-nitrophenyl)pyridine-3,5-dicarboxylate], for which the concentration for half-maximal inhibition (IC50) in assay [1] (setting [4]) is over 200 µM. In the case of `COC(=O)C1=C(C)NC(C)=C(C(=O)OC/C=C/c2ccc(O)cc2)C1c1cccc([N+](=O)[O-])c1` (stereo not drawn) [Test Compound 1, Methyl 3-(4-hydroxyphenyl)-2(E)-propenyl 1,4-dihydro-2,6-dimethyl-4-(3-nitrophenyl)pyridine-3,5-dicarboxylate], the half-inhibitory concentration (IC50) was 8.83 µM in assay [2] and 129 µM in assay [1] (setting [4]). As to `COC(=O)C1=C(C)NC(C)=C(C(=O)OC/C=C/C=C/c2ccc(O)cc2)C1c1cccc([N+](=O)[O-])c1` (stereo not drawn) [Test Compound 3, Methyl 5-(4-hydroxyphenyl)-2(E),4(E)-pentadienyl 1,4-dihydro-2,6-dimethyl-4-(3-nitrophenyl)-pyridine-3,5-dicarboxylate], the half-maximal inhibitory concentration (IC50) in assay [1] (setting [4]) is over 204 µM.

As to `COC(=O)C1=C(C)NC(C)=C(C(=O)OCC#Cc2ccc(O)cc2)C1c1cccc([N+](=O)[O-])c1` (stereo not drawn) [Test Compound 10, Methyl 3-(4-hydroxyphenyl)-2-propynyl 1,4-dihydro-2,6-dimetyyl-4-(3-nitrophenyl)-pyridine-3,5-dicarboxylate], the figures for the IC50 in assay [2] and in assay [1] (setting [4]) were 1.69 µM and 28.1 µM, respectively. With `COC(=O)C1=C(C)NC(C)=C(C(=O)OC/C=C/c2ccccc2)C1c1cccc([N+](=O)[O-])c1` (stereo not drawn) [Test Compound 2, Methyl 3-phenyl-2(E)-propenyl 1,4-dihydro-2,6-dimethyl-4-(3-nitrophenyl)pyridine-3,5-dicarboxylate], the 50% inhibitory concentration (IC50) in assay [1] (setting [4]) was over 223 µM. On the same count and under the same terms, then `COC(=O)C1=C(C)NC(C)=C(C(=O)OC/C=C/c2ccc(O)cc2)C1c1ccccc1` (stereo not drawn) [Test Compound 15, Methyl 3-(4-hydroxyphenyl)-2(E)-propenyl 1,4-dihydro-2,6-dimethyl-4-phenylpyridine-3,5-dicarboxylate], with 76.3 µM. As to `COC(=O)C1=C(C)NC(C)=C(C(=O)OC/C=C/c2cccc(O)c2)C1c1ccccc1[N+](=O)[O-]` (stereo not drawn) [Test Compound 17, Methyl 3-(3-hydroxyphenyl)-2(E)-propenyl 1,4-dihydro-2,6-dimethyl-4-(2-nitrophenyl)-pyridine-3,5-dicarboxylate], the IC50 in assay [2] is 1.94 µM; in assay [1] (setting [4]) it was 53 µM.

Take `COC(=O)C1=C(C)NC(C)=C(C(=O)OCCN(C)Cc2ccccc2)C1c1cccc([N+](=O)[O-])c1` (stereo not drawn) [Test Compound 18, Methyl 2-(N--methyl-N--benzylamino)ethyl 1,4-dihydro-2,6-dimetyyl-4-(3-nitrophenyl)pyridine-3,5-dicarboxylate, reference compound]: the half-maximal inhibitory concentration (IC50) in assay [1] was 27.1 µM. For `COC(=O)C1=C(C)NC(C)=C(C(=O)OC/C=C/c2ccc(O)c(OC)c2)C1c1cccc([N+](=O)[O-])c1` (stereo not drawn) [Test Compound 7, Methyl 3-(3-methoxy-4-hydroxyphenyl)-2(E)-propenyl 1,4-dihydro-2,6-dimethyl-4-(3-nitrophenyl)pyridine-3,5-dicarboxylate], the half-inhibitory concentration (IC50) in assay [1] (setting [4]) was 174 µM. Regarding `COC(=O)C1=C(C)NC(C)=C(C(=O)OC/C=C/c2ccc(O)cc2)C1c1ccccc1C` (stereo not drawn) [Test Compound 16, Methyl 3-(4-hydroxyphenyl)-2(E)-propenyl 1,4-dihydro-2,6-dimethyl-4-(2-methylphenyl)-pyridine-3,5-dicarboxylate], the half-maximal inhibitory concentration (IC50) in assay [1] (setting [4]) is 134 µM. For `COC(=O)C1=C(C)NC(C)=C(C(=O)OC/C=C/c2ccc(O)cc2)C1c1ccccc1C(F)(F)F` (stereo not drawn) [Test Compound 12], in assay [1] (setting [4]), the concentration for half-maximal inhibition (IC50) was over 205 µM. For the compound `COC(=O)C1=C(C)NC(C)=C(C(=O)OC/C=C/c2ccc(OC(C)=O)cc2)C1c1cccc([N+](=O)[O-])c1` (stereo not drawn) [Example 14], the 50% inhibitory concentration (IC50) in assay [1] (setting [4]) was 98.7 µM. Consider `COC(=O)C1=C(C)NC(C)=C(C(=O)OC/C=C/c2ccc(OC)cc2)C1c1cccc([N+](=O)[O-])c1` (stereo not drawn) [Test Compound 8], for which, in assay [1] (setting [4]), the half-maximal inhibitory concentration (IC50) was over 209 µM. For `COC(=O)C1=C(C)NC(C)=C(C(=O)OC/C=C/c2ccccc2O)C1c1cccc([N+](=O)[O-])c1` (stereo not drawn) [Test Compound 11, Methyl 3-(2-hydroxyphenyl)-2(E)-propenyl 1,4-dihydro-2,6-dimethyl-4-(3-nitrophenyl)-pyridine-3,5-dicarboxylate], the IC50 in assay [1] (setting [4]) is 26.9 µM. Regarding “methyl 4-[(1-ethoxy)ethoxy]cinnamyl 1,4-dihydro-2,6-dimethyl-4-(3-nitrophenyl)pyridine-3,5-dicarboxylate [Example 1]”, the “Blood pressure after the administration, difference from the PRE value” in assay [3] (24 hours) is recorded as -41.0 mm-Hg; in assay [3] (30 hours) it was -52.0 mm-Hg; in assay [3] (48 hours), -26.5 mm-Hg; in assay [3] (54 hours) it was -19.8 mm-Hg; in assay [3] (72 hours) it was -12.5 mm-Hg. `COC(=O)C1=C(C)NC(C)=C(C(=O)OCC/C=C/c2ccc(SC)cc2)C1c1cccc([N+](=O)[O-])c1` (stereo not drawn) [Test Compound 13, Methyl 4-(4-methylthiophenyl)-3(E)-butenyl 1,4-dihydro-2,6-dimethyl-4-(3-nitrophenyl)-pyridine-3,5-dicarboxylate]: the concentration for half-maximal inhibition (IC50) in assay [2] is 0.122 µM; in assay [1] (setting [4]), 0.452 µM.
